These results are taken from ChEMBL document CHEMBL1201862, “PubChem BioAssay data set” (2004).

Each structure is given as a SMILES string.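 In this assay, cells in 96-well plates receive the compound at five concentrations for 48 hours. Endpoints are linearly interpolated between the surrounding concentrations. Here, GI50 denotes the concentration required for 50% inhibition of growth.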 The source made the active and inactive calls. No stated cut-off is given here; in the data, active = GI50 up to about 1.1 µM and inactive = higher.

Common to all, as to experiment: NCI-60 cell line screen, 48 h
Test [1] has as its system SF-539.
Test [2] relates to ACHN.
Test [3] concerns NCI-H460.
Test [4] relates to HOP-62.
In test [5] the test system is CAKI-1.
In test [6] the test system is M14.
Test [7] deals with NCI-H23.
Test [8] relates to DU-145.
Test [9] relates to UO-31.
Test [10] concerns T47D.
Test [11] deals with SF-295.
The test system of test [12] is HCT-116.
Test [13] deals with MCF7.
Test [14] has as its system Hs-578T.
Test [15] has as its system UACC-62.
The subject of test [16] is COLO 205.
Test [17] concerns PC-3.
Test [18] has as its system SNB-75.
In test [19] the test system is SK-MEL-28.
Test [20] deals with HL-60.

As to `COC(=O)c1ccc2c(c1)C(NC(C)=O)CCc1cc(OC)c(OC)c(OC)c1-2` (stereo not given), the GI50 was 0.0124 µM (active) in test [1]; 0.018 µM (active) in test [2]; 0.0259 µM (active) in test [3]; 0.0158 µM (active) in test [4]; 0.0177 µM (active) in test [5]; 0.0153 µM (active) in test [6]. In addition, the GI50 in test [7] was 0.0136 µM (active); in test [8], 0.014 µM (active); in test [9], 0.0721 µM (active); in test [10], > 100 µM (inactive); in test [11] it was 0.0117 µM (active); in test [12] it was < 0.0114 µM (active). Moreover, the GI50 in [13] is 0.0612 µM (active); in [14] it was 0.0122 µM (active); in [15] it was 0.0131 µM (active); in test [16], 0.0119 µM (active); in [17], < 0.0127 µM (active); in test [18], 0.0129 µM (active). The results for the GI50 in [19] and in test [20] were 0.0265 µM (active) and 0.0136 µM (active), respectively.
Turning to `OC1C2[C@@H](O)CCCN2C[C@@H](O)[C@H]1O` (stereo not given in full), the GI50 in test [1], in test [2], in test [3], in test [4], in test [5] and in test [6] was > 100 µM (inactive) each time. In addition, the GI50 in test [7], in test [8], in test [9], in test [10], in test [11] and in test [12] was > 100 µM (inactive) each time. In addition, the GI50 in test [13], in test [14], in test [15], in test [16], in test [17] and in [18] was > 100 µM (inactive) each time. Moreover, the GI50 in [19] and in test [20] was > 100 µM (inactive) throughout.
As for `Ic1cccc(/C=C/CN2CCN(CCOC(c3ccccc3)c3ccccc3)CC2)c1`, the GI50 is 17.3 µM (inactive) in test [1]; 44.6 µM (inactive) in [2]; 11.3 µM (inactive) in test [3]; 17 µM (inactive) in [4]; 17.5 µM (inactive) in test [5]; 14.6 µM (inactive) in test [6]. For the same compound, the GI50 in [7] was 16.2 µM (inactive); in test [8], 13.2 µM (inactive); in test [9], 13 µM (inactive); in test [10] it was 10.6 µM (inactive); in [11], 17.5 µM (inactive); in test [12], 12.6 µM (inactive). For the same compound, the GI50 in [13] was 14.6 µM (inactive); in [14], 28 µM (inactive); in test [15], 18.6 µM (inactive); in [16] it was 8.51 µM (inactive); in test [17] it was 17.5 µM (inactive); in test [18] it was 11.5 µM (inactive). For the same compound, the GI50 is 20.8 µM (inactive) in test [19] and 8.91 µM (inactive) in test [20].
Take `COC(=O)NC1C(C)OC(OC2C/C=C(/C)C3C=CC4C(OC5CC(OC6CCC(OC7CC(O)C(OC8CCC(O)C(C)O8)C(C)O7)C(C)O6)C(OC(C)=O)C(C)O5)C(C)CC(C)C4C3(C)/C(O)=C3/C(=O)OC4(CC(C=O)=CC(O)C4/C=C\2C)C3=O)CC1(C)[N+](=O)[O-]` (stereo not given): the GI50 in [1] is 0.34 µM (active); in test [2] it was 1.02 µM (active); in test [3], 0.778 µM (active); in test [4], 0.767 µM (active); in test [5], 2.49 µM (inactive); in test [6] it was 1.07 µM (active). The GI50 in [7] is 0.774 µM (active); in test [8], 1.58 µM (inactive); in test [9], 1.68 µM (inactive); in test [10] it was 2.06 µM (inactive); in test [11], 0.993 µM (active); in [12] it was 0.69 µM (active). Besides, the GI50 in test [13] is 0.94 µM (active); in [14], 0.282 µM (active); in test [15] it was 0.552 µM (active); in [16], 1.1 µM (active); in [17], 1.57 µM (inactive); in test [18] it was 1.75 µM (inactive). The GI50 in test [19] is 0.403 µM (active); in test [20] it was 1.24 µM (inactive).
In the case of `Nn1c(Cc2ccccc2)n[nH]c1=O`, the GI50 in test [1] was > 100 µM (inactive); in [2], > 100 µM (inactive); in test [3] it was > 10 µM (inactive); in test [4], > 100 µM (inactive); in test [5] it was > 100 µM (inactive); in test [6] it was > 100 µM (inactive). The GI50 in test [7], in [8], in test [9], in test [10], in test [11] and in [12] was > 100 µM (inactive) throughout. Further, the GI50 in test [13], in test [14], in test [15], in test [16], in [17] and in test [18] was > 100 µM (inactive) each time. In addition, the GI50 in test [19] and in [20] was > 100 µM (inactive) throughout.
Consider `COc1cc(/C=N/c2nc3cc4sc(/N=C/c5cc(OC)c(OC)c(OC)c5)nc4cc3s2)cc(OC)c1OC`, for which the GI50 in test [1] was 17.9 µM (inactive); in test [2], > 100 µM (inactive); in test [3], 21.5 µM (inactive); in test [4] it was 57.1 µM (inactive); in [5], > 100 µM (inactive); in test [6], 66.8 µM (inactive). Also, the GI50 in test [7] was 56.1 µM (inactive); in test [8], > 100 µM (inactive); in test [9] it was 62.8 µM (inactive); in [10], 51.1 µM (inactive); in test [11] it was 56.8 µM (inactive); in [12], 39.4 µM (inactive). Also, the GI50 in [13] was 53.8 µM (inactive); in test [14], > 100 µM (inactive); in test [15], 67.1 µM (inactive); in test [16] it was 28.4 µM (inactive); in [17], 52.1 µM (inactive); in test [18], 75 µM (inactive). Also, the GI50 in test [19] is 21.7 µM (inactive); in [20] it was 57.1 µM (inactive).
`COc1ccc(C(C)c2cc3c(cc2OC)OCO3)cc1` (stereo not given): the GI50 is 0.1 µM (active) in test [1]; 3.01 µM (inactive) in test [2]; 0.122 µM (active) in [3]; 0.124 µM (active) in test [4]; 0.107 µM (active) in [5]; 0.0738 µM (active) in [6]. In addition, the GI50 is 0.169 µM (active) in test [7]; 0.231 µM (active) in test [8]; 0.272 µM (active) in test [9]; 2.08 µM (inactive) in test [10]; 0.0611 µM (active) in [11]; 0.111 µM (active) in test [12]. The GI50 was 0.0461 µM (active) in test [13]; 0.0207 µM (active) in test [14]; 0.2 µM (active) in test [15]; 0.135 µM (active) in test [16]; 0.0715 µM (active) in test [17]; 0.06 µM (active) in test [18]. Besides, the GI50 in test [19] is 2.33 µM (inactive); in test [20] it was 0.0802 µM (active).
For the compound `O=C(Nc1sccc1S(=O)(=O)c1ccc(Cl)cc1)c1ccc(Cl)cc1`, the GI50 in [1] was 39.9 µM (inactive); in test [2], 99.1 µM (inactive); in [3], 56.5 µM (inactive); in test [4] it was 39.4 µM (inactive); in test [5] it was 80.4 µM (inactive); in test [6], > 100 µM (inactive). The GI50 is 68.5 µM (inactive) in [7]; > 100 µM (inactive) in test [8]; 86.3 µM (inactive) in [9]; > 100 µM (inactive) in test [10]; 34 µM (inactive) in [11]; > 100 µM (inactive) in test [12]. Besides, the GI50 was 99.8 µM (inactive) in [13]; 51.3 µM (inactive) in test [14]; > 100 µM (inactive) in [15]; > 100 µM (inactive) in test [16]; 25.9 µM (inactive) in test [17]; 31.8 µM (inactive) in test [18]. Also, the GI50 in test [19] and in test [20] was > 100 µM (inactive) each time.
Take `C[N+](C)(C)CC(=O)N/N=C\c1c(O)ccc2ccccc12`: the GI50 in test [1] is 31.5 µM (inactive); in test [2], 32.7 µM (inactive); in [3], 18.1 µM (inactive); in [4], 26.7 µM (inactive); in test [5], 40.9 µM (inactive); in test [6], 31.5 µM (inactive). Besides, the GI50 in test [7] was 36 µM (inactive); in test [8], 23.8 µM (inactive); in test [9], 33.3 µM (inactive); in test [10], 32.9 µM (inactive); in test [11], 46.1 µM (inactive); in [12], 42.6 µM (inactive). For the same compound, the GI50 was 59.7 µM (inactive) in test [13]; 14.4 µM (inactive) in test [14]; 28.2 µM (inactive) in test [15]; > 100 µM (inactive) in test [16]; 37.6 µM (inactive) in test [17]; 16.8 µM (inactive) in [18]. Further, the GI50 is 48.2 µM (inactive) in test [19] and 14.2 µM (inactive) in test [20].
Turning to `N=C(N)NC(=N)Nc1ccc(S(N)(=O)=O)cc1`, the GI50 in [1], in test [2], in test [3], in test [4], in test [5] and in test [6] was > 100 µM (inactive) each time. In addition, the GI50 in [7], in [8], in test [9], in test [10], in test [11] and in test [12] was > 100 µM (inactive) throughout. For the same compound, the GI50 in test [13], in test [14], in test [15], in [16], in [17] and in test [18] was > 100 µM (inactive) in each case. Further, the GI50 in test [19] and in test [20] was > 100 µM (inactive) throughout.
